These results are taken from patent publication US4062934A, “X-ray contrast media” (Laboratoires Andre Guerbet, priority 1975, dated 1977).

Data set [1] is described as follows: Osmolality of aqueous solutions containing 28% iodine. The data set is classed as physicochemical. To be noted: aqueous solution.
Data set [2] is described as follows: Neurotoxicity, intra-cisternal injection in rats (technique according to E. Melartin). To be noted: in vivo, at 50 mg I/rat, read-out: Neurotoxicity: death rate, intra-cisternal injection in rats. From the text:
*Technique according to E. Melartin (Investigative Radiology, 1970, 5, 1,

Data set [3] in a line: Viscosity of aqueous solution. The data set is classed as physicochemical. To be noted: 25 g iodine per 100 ml, 37° C. How it is done:
The product is dissolved in water at a concentration of 25 g iodine per 100 ml. The solution has a viscosity of 7.4 centipoises at 37° C.

The subject of another data set is mice. The data set is described as follows: LD50, I.V., in mice. The data set is classed as in vivo. The following applies: aqueous solution containing 28% iodine.
Data set [4] can be described thus: Neurotoxicity, intra-cerebral injection in mice (technique according to Haley and MacCornick). The following applies: mouse, in vivo, 700 mg/kg, at 700 mg I/kg, read-out: Neurotoxicity: death rate, intra-cerebral injection in mice. The text has this:
**Technique according to Haley and MacCornick (British Journal

SMILES strings stand for the structures.

In data set [1], `CC(=O)N(C)c1c(I)c(NC(=O)[C@H](O)[C@@H](O)[C@H](O)[C@H](O)CO)c(I)c(C(=O)NCCNC(=O)c2c(I)c(NC(=O)[C@H](O)[C@@H](O)[C@H](O)[C@H](O)CO)c(I)c(N(C)C(C)=O)c2I)c1I` [I, 1,2-N,N'-bis(2,4,6-triiodo-3-N-methyl-N-acetylamino-5-N-gluconylamino-benzoyl)-diamino-ethane] displayed an Osmolality of 200 mosm/kg. Moreover, the mortality in data set [2] and in data set [4] was 0% throughout. In data set [3], this compound displayed a viscosity of 7.4 centipoises. Also, the “LD50, I.V., in mice” value in the data set on mice was 15 g I/kg.
The compound `CC(=O)N(C)c1c(I)c(NC(=O)[C@H](O)[C@@H](O)[C@H](O)[C@H](O)CO)c(I)c(C(=O)NNC(=O)c2c(I)c(NC(=O)[C@H](O)[C@@H](O)[C@H](O)[C@H](O)CO)c(I)c(N(C)C(C)=O)c2I)c1I` [II, N,N'-bis(2,4,6-triiodo-3-N-methyl-N-acetylamino-5-N-gluconylamino-benzoyl)hydrazide] registered an Osmolality in data set [1] of 204 mosm/kg. The “LD50, I.V., in mice” value with mice is listed as 6 g I/kg.
In turn, `CC(=O)N(C)c1c(I)c(NC(=O)[C@H](O)[C@@H](O)[C@H](O)[C@H](O)CO)c(I)c(C(=O)N(C)N(C)C(=O)c2c(I)c(NC(=O)[C@H](O)[C@@H](O)[C@H](O)[C@H](O)CO)c(I)c(N(C)C(C)=O)c2I)c1I` [III, N,N'-bis(2,4,6-triiodo-3-N-methyl-N-acetylamino-5-N-gluconylamino-benzoyl)dimethyl hydrazide] registered an Osmolality in data set [1] of 140 mosm/kg. In the data set with mice, the “LD50, I.V., in mice” value amounted to 9 g I/kg.
